Source: patent US20090111836A1, “Angular Pyranocoumarins, Process for Preparation and Uses Thereof” (CITY UNIVERSITY OF HONG KONG, priority 2007, published 2009)

Key:
P-gp [1] = target: T1, P-gp (Homo sapiens, UniProt P08183); assay: Rhodamine-123 efflux assay, HepG2-DR; assay type: cell-based; parameters: KB V1, HepG2-DR and K562-DR cell expressed P-gp at high level when compared with parental drug sensitive cells thereof; endogenous in cells; host or cells: HepG2-DR (doxorubicin-maintained multidrug resistant subline of HepG2); settings: 10 μM, 1 hour efflux
Experimental: (§1) (Fs: cellular fluorescence intensity of Rb-123 in the presence of testing drugs; Fo: cellular fluorescence intensity of Rh-123 in the absence of any P-gp modulator).
(§2) 1.4 Test for Rh-123 transport: HepG2-DR cells or K562-DR cells (1×10^6 cells in 1 mL complete growth medium) were incubated with 5 μg/mL, Rh-123 at 37° C. for 1 hour to allow Rh-123 uptake. […] Cellular fluorescence of Rh-123 was determined by flow cytometry to analyze the inhibitive effect of test compounds on drug expulsion from cells.

P-gp [2] = target: T1, P-gp; assay: Rhodamine-123 efflux assay, K562-DR; assay type: cell-based; parameters: K562-DR cell expressed P-gp at high level when compared with parental drug sensitive cells thereof; endogenous in cells; settings: 10 μM, 1 hour efflux
Experimental: as §1, §2

T1 sequence (P08183 whole entry): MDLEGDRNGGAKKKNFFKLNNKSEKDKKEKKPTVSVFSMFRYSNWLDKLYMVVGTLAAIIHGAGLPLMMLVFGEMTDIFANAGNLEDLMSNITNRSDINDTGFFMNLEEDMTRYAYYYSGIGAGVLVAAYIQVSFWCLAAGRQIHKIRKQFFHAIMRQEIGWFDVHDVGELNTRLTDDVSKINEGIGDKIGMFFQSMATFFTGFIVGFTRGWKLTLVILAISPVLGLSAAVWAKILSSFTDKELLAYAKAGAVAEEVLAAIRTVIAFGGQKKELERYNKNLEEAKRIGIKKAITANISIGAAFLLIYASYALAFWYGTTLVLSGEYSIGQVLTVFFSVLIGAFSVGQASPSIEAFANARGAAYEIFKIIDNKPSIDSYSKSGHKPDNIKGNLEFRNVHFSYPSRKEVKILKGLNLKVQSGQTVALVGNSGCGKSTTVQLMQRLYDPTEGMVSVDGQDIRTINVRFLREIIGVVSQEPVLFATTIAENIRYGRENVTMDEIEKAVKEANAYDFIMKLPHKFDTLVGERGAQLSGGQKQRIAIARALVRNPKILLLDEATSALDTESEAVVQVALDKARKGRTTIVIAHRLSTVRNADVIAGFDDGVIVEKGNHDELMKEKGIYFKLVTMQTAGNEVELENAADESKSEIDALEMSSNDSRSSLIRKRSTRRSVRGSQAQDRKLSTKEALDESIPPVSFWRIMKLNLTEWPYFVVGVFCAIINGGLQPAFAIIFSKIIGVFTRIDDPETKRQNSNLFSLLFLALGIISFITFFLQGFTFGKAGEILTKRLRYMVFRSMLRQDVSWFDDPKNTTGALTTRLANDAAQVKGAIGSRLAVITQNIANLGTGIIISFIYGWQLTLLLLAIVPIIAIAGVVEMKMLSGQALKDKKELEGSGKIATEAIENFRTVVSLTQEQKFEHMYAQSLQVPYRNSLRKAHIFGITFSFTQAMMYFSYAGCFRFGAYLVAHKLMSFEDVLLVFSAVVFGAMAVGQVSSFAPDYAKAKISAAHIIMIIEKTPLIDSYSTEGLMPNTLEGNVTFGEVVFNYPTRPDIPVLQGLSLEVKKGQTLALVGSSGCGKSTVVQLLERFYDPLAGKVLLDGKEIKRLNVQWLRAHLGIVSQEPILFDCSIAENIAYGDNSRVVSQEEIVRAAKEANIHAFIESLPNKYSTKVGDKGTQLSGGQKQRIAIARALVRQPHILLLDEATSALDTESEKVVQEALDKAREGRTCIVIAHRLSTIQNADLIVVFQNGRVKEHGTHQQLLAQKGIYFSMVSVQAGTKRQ

Row | Increase in cellular Rh-123 fluorescence compared with untreated cells (P-gp [1]) [%] | Increase in cellular Rh-123 fluorescence compared with untreated cells (P-gp [2]) [%] | SMILES
1 | 480 | 200 | COc1ccc(/C=C/C(=O)O[C@@H]2c3c(ccc4ccc(=O)oc34)OC(C)(C)[C@@H]2OC(=O)/C=C/c2ccc(OC)c(OC)c2)cc1OC (racemic) [cis-DMDCK, (±)-3′-O,4′-O-bis(3,4-dimethoxycinnamoyl)-cis-khellactone]
2 | 400 | 140 | COc1ccc(C(=O)O[C@@H]2c3c(ccc4ccc(=O)oc34)OC(C)(C)[C@@H]2OC(=O)c2ccc(OC)c(OC)c2)cc1OC (racemic) [cis-DMDBK, (±)-3′-O,4′-O-bis(3,4-dimethoxybenzoyl)-cis-khellactone]
